Data as given in patent US10564164B2, “Fluorescent probe, singlet oxygen detection agent, and singlet oxygen detection method” (Osaka University, priority 2014, dated 2020).

Experiments:
[1] = Fluorescence quantum yield in various solvents in the absence of singlet oxygen; type: physicochemical
Description: (§1) Further, in the in vitro measurement, unless otherwise specified, all bulk spectrum measurements were performed in a phosphate buffered saline (PBS) having a pH of 7.5 without Ca and Mg or spectral grade methanol. The absorption spectrum and fluorescence spectrum in the ground state were measured using the Shimadzu UV-3100 and Horiba FluoroMax-4, respectively. The bulk irradiation was performed using a xenon light source (LAX-C100, Asahi Spectra Co., Ltd.) and a wavelength filter (BA510-550, Olympus Corporation).
As is clear from the above, fluorescence was hardly observed in the absence of singlet oxygen, (Φfl=0.01; in methanol), and the excitation of silicon-rhodamine was cancelled due to photoinduced electron transfer caused by the anthracene structure. The fluorescence in the absence of singlet oxygen also depended on the type of solvent. The fluorescence intensity decreases when a polar solvent is used, thereby inhibiting erroneous signals.

[2] = Fluorescence/absorption spectrum of probe with TMPyP4 under light irradiation (photosensitised singlet oxygen); type: physicochemical; settings: for increase of fluorescence intensity: 50 μM Si-DMA, 5 μM TMPyP4, 50-minute irradiation 510-550 nm, 0.07 W/cm2
Description: as §1
The concentration of Si-DMA was 50 μM, and the concentration of TMPyP4 was 5 μM. The light irradiation was performed using a 510- to 550-nm wavelength ray at an intensity of 0.07 W/cm^2 under magnetic stirring so as to generate singlet oxygen.
In FIGS. 1a) and 1c), the black arrows denote changes in absorption by peroxidation (solid line) of the anthracene structure and disaggregation of hydrogen aggregate (broken line).
Subsequently, Si-DMA was reacted with singlet oxygen, thereby forming Si-DMEP; as a result, photoinduced electron transfer was inhibited, thereby increasing the fluorescence intensity (Φfl=0.17). In methanol, the fluorescence intensity increased about 18 times (in methanol), and about 22 times (in PBS) (FIGS. 1b) and 1d); red), and a loss of the anthracene structure was observed (FIG. 1a); black arrow).

HeLa cells = assay: Selectivity of photosensitizer: intracellular singlet oxygen detection with Si-DMA; type: cell-based; settings: 25 nM Si-DMA, 640 nm, 0.6 W/cm2
Description: Subsequently, a quick protocol provided by Molecular Probe® for introducing CellROX Green was followed. Using diluted Si-DMA and Si-Me, incubation was performed for 30 minutes to two hours by an experiment. To introduce a photosensitizer, 150 μg/mL of 5-aminolevulinic acid (5-ALA) or 10 LM TMPyP4 were incubated for four hours and 24 hours, respectively. As a result, as previously reported, the conversion of 5-ALA into protoporphyrin IX (PpIX) in the mitochondria was confirmed by the fluorescence luminescence of PpIX.
A KillerRed vector was expressed in accordance with a general Lipofectamine® 2000 (Invitrogen) protocol. More specifically, 2×10^5 Hela cells were subcultured in a 35-mm glass bottom dish. The cells reached about 50% confluent in the next day.
Subsequently, a mixed solution of Lipofectamine reagent and DNA vector was obtained by mixing 6 μL Lipofectamine® 2000 with 7 μL pKillerRed-dMitovector ([…], Evrogen, catalog No. FP964) in an Opti-MEM solution (Gibco). Thereafter, the resulting solution was incubated for 20 minutes at room temperature. 300 μL of the mixed solution was added to a growth medium, and incubated for 24 hours. The expression of KillerRed was confirmed by monitoring KillerRed fluorescence using a wide-view microscope. […]
Further, on the night before the treatment, 0.2×10^6 HeLa cells were seeded on a 35-mm dish, and pKillerRed-dMito vector (Evrogen) was introduced using Lipofectaimine®2000 (Invitrogen®), followed by 24-hour incubation as described above, thereby preparing HeLa cells containing […]. […] Light irradiation was performed for 30 seconds simultaneously at 0.5 W/cm^2 and 0.6 W/cm^2 using a 640-/532-nm laser (Coherent) and a wide-view fluorescence microscope system mounted in an IX81 inverted microscope (Olympus Corporation). […]
Further, in this Experiment Example, 60-second light irradiation was performed using three kinds of photosensitizers, and an average number of pseudo colors appeared in the photo and an increase thereof were measured. […]

## Cc1c2ccccc2c(C)c2cc(C3=C4C=CC(=[N+](C)C)C=C4[Si](C)(C)c4cc(N(C)C)ccc43)ccc12 [Si-DMA]
[1]; in DMSO
  Φfl (fluorescence quantum yield): 0.008
[1]; in acetone
  Φfl (fluorescence quantum yield): 0.010
[1]; in benzene
  Φfl (fluorescence quantum yield): 0.034
[1]; in chloroform
  Φfl (fluorescence quantum yield): 0.010
[1]; in methanol
  Φfl (fluorescence quantum yield): 0.01
[1]; in toluene
  Φfl (fluorescence quantum yield): 0.030
[2]; after 900 seconds
  stability (color fading) under light irradiation: color fading was not observed
[2]; in PBS
  increase of fluorescence intensity: about 22 times
[2]; in methanol
  increase of fluorescence intensity: about 18 times
[2]; in the absence of TMPyP4
  change of fluorescence on light irradiation: did not increase
HeLa cells; HeLa cells with PpIX (150 μg/mL 5-aminolevulinic acid, 4 h)
  time to increase in fluorescence in the vicinity of the perinuclear region: ≤ 10 s
HeLa cells; HeLa cells with PpIX as photosensitizer
  color rendering: clear color rendering was accomplished
